Test results reported in US8327467B2, “Anthranilic acid derivative or salt thereof” (Toyama Chemical Co., Ltd., priority 2005, dated 2012).
Counter-ions that a name gives are not always drawn.

Each molecule was assayed on type II collagen-induced arthritis (assay: Type II collagen-induced arthritis in mice). Conditions: male DBA/1 J mice, 10 mg/kg orally once a day from the 21st day to the 35th day.
Assay type: in vivo
Experimental: Type II Collagen-Induced Arthritis in Mice
Eight-week old male DBA/1 J mice were used (Charles River Laboratories Japan Inc.). 4 mg/mL bovine type II collagen (Collagen Gijutsu Kenshukai) dissolved in 0.01 mol/L of acetic acid aqueous solution and an equal amount of Freund's complete adjuvant (Chondorex) containing 1 mg/mL of killed tuberculosis bacillus were added to prepare an emulsion, and 0.1 mL thereof was intradermally injected at the base of tail. Similar treatment was conducted on the 21st day to cause arthritis. The test compound was suspended in 0.5% methylcellulose aqueous solution, and 10 mg/kg was orally administered once a day from the 21st day to the 35th day. In the control group,0.5% methylcellulose aqueous solution was administered in the same manner. The severity of arthritis was estimated by scoring at zero point for an animal without change; one point for an animal with swelling at the one or two finger joint or light swelling only at the carpal or tarsal joint; two points for an animal with severe swelling at the carpal or tarsal joint or with swelling at three or more finger joints; three points for an animal with severe swelling along the whole foreleg or hindleg and thus counting 12 points at the maximum for the four limbs as arthritis score. […] The inhibitory rate was determined by the following expression. […]

SMILES | inhibitory action on arthritis (arthritis score) | inhibitory action on bone destruction (bone destruction score, X-ray on the 36th day)
O=C(O)c1ccc(CCc2ccccc2)cc1Nc1ccc(F)cc1 [Example 38, 2-(4-Fluoroanilino)-4-phenethylbenzoic acid] | exhibited inhibitory action | exhibited inhibitory action

What follows are molecules tested on MMP-13 (assay: MMP-13 production inhibition test). Conditions: 30 μmol/L; human cartilage derived cell line SW1353, IL-1β 10 ng/mL, 16 hours after stimulation, MMP-13 in culture supernatant by ELISA; read-out: Inhibition rate (%) at 30 μmol/L.
Assay type: cell-based
Experimental: MMP-13 Production Inhibition Test
6.8×10^3 human cartilage derived cell line SW1353 cells were suspended in 100 μL of Dulbecco modified Eagle's medium supplemented with 10% fetal calf serum, plated on 96-well plates and cultured for 3 days. After the culture medium was changed to Dulbecco modified Eagle's medium containing 0.2% lactalbumin hydrolysate and the cells were cultured for 6 hours, test compounds were added and then IL-1β was added to obtain the final concentration of 10 ng/mL 1 hour later. 16 hours after the stimulation, supernatant was collected and the amount of MMP-13 in the culture supernatant was determined with an ELISA kit (Amersham). The inhibition rate was calculated from the amount of MMP-13 in the presence of a test compound assuming that the amount of MMP-13 was 100% in the absence of the test compound.

SMILES | inhibition at 30 µM
O=C(O)c1ccc(CCc2ccccc2)cc1Nc1ccc(F)cc1 [Example 38, 2-(4-Fluoroanilino)-4-phenethylbenzoic acid] | 97%
Cc1ccccc1Nc1cc(-c2cccc(O)c2)ccc1C(=O)O [Example 280, 4-(3-Hydroxyphenyl)-2-(2-methylanilino)benzoic acid] | 90%
O=C(O)c1ccc(N2CCc3ccccc32)cc1Nc1cccc(O)c1 [Example 286, 2-((3-hydroxyphenyl)amino)-4-(indolin-1-yl)benzoic acid] | 96%
COc1cccc(CCc2ccc(C(=O)O)c(Nc3ccccc3C)c2)c1 [Example 290, 4-(2-(3-Methoxyphenyl)ethyl)-2-(2-methylanilino)benzoic acid] | 98%
O=C(O)c1ccc(CCc2ccc3c(c2)OCCO3)cc1Nc1cccc(O)c1 [Example 293, 4-(2-(2,3-dihydro[1,4]benzodioxin-6-yl)ethyl)-2-((3-hydroxyphenyl)amino)benzoic acid] | 87%
O=C(O)c1ccc(CCc2ccccc2)cc1Nc1cc(-c2ccccc2)n[nH]1 [Example 329, 4-Phenethyl-2-((3-phenyl-1H-pyrazol-5-yl)amino)benzoic acid] | 96%
O=C(O)c1ccc(CCc2ccccc2)cc1Nc1ccc2[nH]ccc2c1 [Example 331, 2-((1H-Indol-5-yl)amino)-4-phenethylbenzoic acid] | 97%
O=C(O)c1ccc(-c2ccccc2)cc1Nc1cccc2cccnc12 [Example 340, 4-Phenyl-2-((quinolin-8-yl)amino)benzoic acid] | 97%
O=C(O)c1ccc(-c2ccccc2)cc1Nc1ccccc1Cl [Example 343, 2-(2-Chloroanilino)-4-phenylbenzoic acid] | 98%
O=C(O)c1ccc(-c2ccccc2)cc1NCC=Cc1ccccc1 [Example 350, 2-(Cinnamylamino)-4-phenylbenzoic acid] | 91%
O=C(O)c1ccc(CCc2ccccc2)cc1Nc1cccc2cnccc12 [Example 360, 2-((Isoquinolin-5-yl)amino)-4-phenethylbenzoic acid trifluoroacetate] | 97%
O=C(O)c1ccc(CCc2ccccc2)cc1Nc1cccc(-n2cccn2)c1 [Example 362, 4-Phenethyl-2-(3-(1H-pyrazol-1-yl)phenylamino)benzoic acid] | 97%
O=C(O)c1ccc(CCc2ccccc2)cc1Nc1ccc(-n2cccn2)cc1 [Example 363, 4-Phenethyl-2-(4-(1H-pyrazol-1-yl)phenylamino)benzoic acid] | 96%
CN(C)c1ccccc1Nc1cc(-c2ccccc2)ccc1C(=O)O [Example 372, 2-((2-(dimethylamino)phenyl)amino)-4-phenylbenzoic acid] | 97%
